The values that follow come from publication PMC9486805, “Identification of a Phage Display-Derived Peptide Interacting with the N-Terminal Region of Factor VII Activating Protease (FSAP) Enables Characterization of Zymogen Activation” (ACS Chemical Biology, 2022).

Common to all, as to assay type: biochemical, human
For experiment [1], the system named is pro-FSAP in WT/MI plasma. Kind of experiment: Substrate turnover in WT/MI plasma. The conditions noted are these: WT/MI citrate plasma 1:12; 25 μM (Fig 6A). As for the experimental part: Figure 6 Pro-FSAP activation and clotting in plasma by NNKC9/41: (A) citrate plasma (1:12 dilution) from donors with WT/WT, WT/MI, and MI/MI genotypes and WT-FSAP-deficient plasma (FSAP-DP) were compared. Substrate turnover was monitored after addition of NNKC9/41 or the Ser–Ser linear peptide (25 μM each). Results are shown as mean + range of duplicate wells. (B) Pooled prothrombin-deficient citrated plasma (1:5 dilution) was recalcified with 10 mM CaCl2 and incubated with NNKC9/41 or scrambled control peptide (0–25 μM each) for 60 min at 37 °C in the presence or absence of the FSAP-inhibitory MA-FSAP-38C7 (5 μg/mL). Initiation of clotting was achieved by adding the tissue factor/phospholipid and prothrombin complex concentrate. Clotting time was measured as diluted prothrombin time (dPT) in seconds. Data are the mean of three independent experiments. The relative dPT in % of the untreated control is presented as mean ± standard error (SE) (*p <0.05, two-way analysis of variance (ANOVA) and Bonferroni post-test).
Human citrate plasma (0.38% w/v) or hirudin plasma (25 μg/mL Lepirudin) was obtained from five healthy donors. […] Hydrolysis of the fluorogenic substrates was measured using a Synergy HI plate reader with excitation at 320 nm and emission at 460 nm at 37 °C for 60 min. The maximal velocity was calculated from the linear part of the progress curve. […]

The subject of experiment [2] is recombinant serine protease domain (SPD) of FSAP. Kind of experiment: Activity of recombinant serine protease domain of FSAP. The conditions noted are these: rSPD 20 nM; peptide 0-50 μM; S2288 250 µM (Fig S7A). The protocol: Fig S7. […]
nM) and Factor Xa (20 nM) with S-2765 (250 µM). pro-FSAP (20 nM) and recombinant serine protease domain (rSPD) (20 nM) with S2288 (250 µM). All pro-enzymes and enzyme were obtained from Enzyme Research Laboratories (South Bend, IN, USA) except plasminogen and FSAP, which were isolated in house; and pro-uPA was from Grünenthal (Stolberg, Germany). All chromogenic substrates were from Hyphen Biomed (Neuville Sur Oise, France). Experiments were carried out in TBS with Tween-20 (0.1 % wt/ vol) BSA (0.3% wt/vol) and CaCl2 (2 mM). Absorbance at 405 nm was measured over time and the enzyme activity is depicted was measured in duplicates (mean + or -range) and similar results were obtained in 3

Experiment [3] deals with immobilized pro-FSAP. Nature of the experiment: Activation of pro-FSAP captured from plasma on anti-FSAP antibody-coated wells. The conditions noted are these: peptide 0–25 μM in solution, duplicate wells (Fig 5A). The protocol:
Figure 5 Characteristics of pro-FSAP activation in plasma by NNKC9/41: (A) neutravidin-coated wells were used to capture biotinylated NNKC9/41 or scrambled control peptide (0–25 μM). Hirudin plasma (1:10) was incubated in the wells for 1 h at 37 °C to allow for binding and activation of pro-FSAP. In parallel, wells were coated with rabbit polyclonal anti-FSAP antibody (2 μg/mL) and plasma was added to immobilize FSAP in the presence of solution phase NNKC9/41 or its scrambled control (0–25 μM). Fluorogenic substrate turnover (Ac–Ala–Lys–Nle–Arg–AMC) was monitored. (B) Plasma was incubated with NNKC9/41 and Ser–Ser control (0–50 μM each) in the absence of any antibody or in the presence of MA-FSAP-38C7 or MA-FSAP-32F10 (5 μg/mL) and the FSAP activity was monitored. (C) Plasma was incubated with NNKC9/41 (25 μM) in the presence of MA-FSAP-38C7 or MA-FSAP-32F10 (0–10 μg/mL) and the FSAP activity was monitored. For (A)–(C), results are shown as mean + range of duplicate wells.

CRGAMWMYKRC [NNKC9/41]: the substrate turnover result in experiment [1] was “low turnover”. The “effect on activity of recombinant SPD” value in experiment [2] was “did not alter the activity”. For the same sequence, the “activation of captured pro-FSAP” value in experiment [3] was “found to activate pro-FSAP”.
